Data published in publication PMC7307922 (Journal of Medicinal Chemistry, 2020).
Several values for one entry are separate records, joined by “and”; a condition that tells them apart may be missing. Equal values may be shown once.

Key:
[1] = molecular target: T1, Cav1.2 (L-type) Human Calcium Ion Channel (Homo sapiens, UniProt Q13936); assay: Cav1.2 (L-type) calcium ion channel binding assay, Panlabs; settings: 10 μM
T1 construct: Panlabs
Procedure: Counterscreen data on 1, 16, 57 and 63
Cav1.2 (L-type) Human Calcium Ion Channel Binding -20% 13% 12% 1%
(Antagonist Radioligand) Assay, Panlabs, 10 µM

rFFA3 = molecular target: T2, rFFA3 (Rattus norvegicus, UniProt B2GV46); assay: cAMP assay, rFFA3; assay type: cell-based
T2 construct: expressed in transfected cells; host or cells: HEK293 Flp-In T-REx, doxycycline-induced
T2 sequence (B2GV46 1-319): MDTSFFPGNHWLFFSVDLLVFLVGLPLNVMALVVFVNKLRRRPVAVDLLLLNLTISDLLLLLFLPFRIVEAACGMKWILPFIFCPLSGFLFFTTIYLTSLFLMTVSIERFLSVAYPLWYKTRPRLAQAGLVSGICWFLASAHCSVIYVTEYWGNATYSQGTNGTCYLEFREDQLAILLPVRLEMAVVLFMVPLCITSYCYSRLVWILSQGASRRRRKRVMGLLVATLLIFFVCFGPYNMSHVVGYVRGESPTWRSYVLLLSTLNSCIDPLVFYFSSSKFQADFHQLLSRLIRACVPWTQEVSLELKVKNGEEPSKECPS
Procedure: (§1) With several compounds with improved properties in hand, we wished to investigate the suitability of the compounds as tools for in vivo studies in rodents. Because of the moderate potency and low solubility associated with this series, it has been presumed that they are poorly suited as in vivo tools.
(§2) HEK293 Flp-In T-Rex cells stably transfected with FFA3-eYFP receptors were incubated overnight with doxycycline to induce expression, then harvested, and cryopreserved. On the day of each experiment, cells were thawed and resuspended in stimulation buffer. Assays were carried out using a 384-well plate format with 3000 cells/well using the CisBio cAMP GS dynamic kit as per manufacturer’s protocol. Compounds were tested for the ability to inhibit 0.3 μM forskolin-induced cAMP production after co-incubation for 1 h. Reactions were measured using a PHERAstar FS plate reader (BMGLabtech, Aylesbury, UK).

mFFA3 = molecular target: T3, mFFA3 (Mus musculus, UniProt Q3UFD7); assay: cAMP assay, mFFA3; assay type: cell-based; parameters: expressed in transfected cells; host or cells: HEK293 Flp-In T-REx, doxycycline-induced; settings: for loss of potency from human to rodent species: hFFA3 vs rFFA3 and mFFA3, cAMP
T3 sequence (Q3UFD7 1-319): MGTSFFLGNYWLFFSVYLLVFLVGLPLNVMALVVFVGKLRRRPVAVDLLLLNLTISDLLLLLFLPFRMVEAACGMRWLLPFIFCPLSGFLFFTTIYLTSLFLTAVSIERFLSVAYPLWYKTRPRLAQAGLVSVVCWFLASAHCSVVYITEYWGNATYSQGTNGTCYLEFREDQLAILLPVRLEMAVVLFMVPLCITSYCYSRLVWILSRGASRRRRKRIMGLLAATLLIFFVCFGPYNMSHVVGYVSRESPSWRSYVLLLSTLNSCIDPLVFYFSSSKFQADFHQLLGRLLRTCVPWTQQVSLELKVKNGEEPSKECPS
Procedure: as §1, §2

log D7.4 measurement = assay type: physicochemical; settings: pH 7.4; read-out: logD7.4
Procedure: Solubility and log D7.4 measurements were performed in accordance to the previously published procedures.[35]

human FFA4 = molecular target: T4, human FFA4 (Homo sapiens, UniProt Q5NUL3); assay: FFA4 counterscreen, arrestin BRET assay; assay type: cell-based; settings: 10 μM
T4 construct: expressed in transfected cells; host or cells: HEK293T, transient co-transfection
T4 sequence (Q5NUL3 1-361): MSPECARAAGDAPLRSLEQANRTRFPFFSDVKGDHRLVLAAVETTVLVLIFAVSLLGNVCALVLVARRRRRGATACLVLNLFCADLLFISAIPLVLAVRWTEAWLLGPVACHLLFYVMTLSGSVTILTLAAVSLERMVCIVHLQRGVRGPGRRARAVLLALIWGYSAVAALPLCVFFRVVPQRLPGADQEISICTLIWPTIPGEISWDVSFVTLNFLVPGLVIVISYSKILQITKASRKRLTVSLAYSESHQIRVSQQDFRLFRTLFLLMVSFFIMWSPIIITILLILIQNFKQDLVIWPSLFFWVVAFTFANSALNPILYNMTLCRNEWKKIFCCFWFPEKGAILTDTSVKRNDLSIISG
Procedure: Counter screening against FFA1, FFA2 , FF A4 and GPR84
Counter screening against FFA1 and FFA4 was carried out using a modified version of a previously described bioluminescence resonance energy transfer (BRET) designed to assess recruitment of b-ar r estin-2 to each receptor.2 Briefly, HEK293T cells were co-transfected with plasmids en coding either human FFA1 or human FFA4 tagged at their C -termini with eYFP and with a plasmid encoding b-ar r estin-2 tagged at its N-terminal with Nanoluciferase. 24 h post transfection cells were seeded into black with clear bottom 96-well plates that had been coated with poly-D-lysine. Cells were then cultured a further 24 h prior to experiments. Cells were then washed twice with Hank’s Balanced salt solution supplemented with 10 mM HEPES (HBSSH) then incubated at 37 °C in HBSSH for 30 min prior to running the assay. The Nluc substrate, coelenterazine h was then added to a f inal concentration of 5 µM and cells were incubated at 37 °C for 10 min prior to adding test agonists. Following a further 5 min incubation, luminescent emission at 475 nm and 535 nm was measured using a Pherastar FS reader (BMG Labtech, Aylesbury, UK) pla te reader set for bottom plate optics. The BRET ratio was then calculated as 535/475 emissions and all BRET ratio values were normalized against the maxima l BRET ratio obtained using reference agonists for the respective receptors (TUG -891 for FFA4, TUG-770 for FFA1). For antagonism studies, the same protocol was used, however the antagonist was added 15 min prior to the addition of an EC 80 concentration of the reference agonist for each receptor. […]

[2] = Stability toward mouse liver microsomes; settings: remaining after 40 min incubation with MLMs
Procedure: The study was performed by Bienta (www.bienta.net). Mouse hepatic microsomes were isolated from pooled and perfused livers of male BALB/c mice (n = 50). Isolation was performed according to the standard protocol.[36]
Microsomal incubations were carried out in 96-well plates in 5 aliquots of 40 μL each (one for each time point). Liver microsomal incubation medium comprised PBS (100 mM, pH 7.4), MgCl2 (3.3 mM), NADPH (3 mM), glucose-6-phosphate (5.3 mM), and glucose-6-phosphate dehydrogenase (0.67 units/mL) with 0.42 mg of liver microsomal protein per ml. In the control reactions, the NADPH-cofactor system was substituted with PBS. […] Each reaction was performed in duplicates. Five time points over 40 min were analyzed. The reactions were stopped by adding 12 volumes of 90% acetonitrile–water to incubation aliquots, followed by protein sedimentation by centrifuging at 5500 rpm for 3 min. […]. Supernatants were analyzed using HPLC-MS/MS on an API 3000 PE instrument.

T1 sequence (Q13936 whole entry): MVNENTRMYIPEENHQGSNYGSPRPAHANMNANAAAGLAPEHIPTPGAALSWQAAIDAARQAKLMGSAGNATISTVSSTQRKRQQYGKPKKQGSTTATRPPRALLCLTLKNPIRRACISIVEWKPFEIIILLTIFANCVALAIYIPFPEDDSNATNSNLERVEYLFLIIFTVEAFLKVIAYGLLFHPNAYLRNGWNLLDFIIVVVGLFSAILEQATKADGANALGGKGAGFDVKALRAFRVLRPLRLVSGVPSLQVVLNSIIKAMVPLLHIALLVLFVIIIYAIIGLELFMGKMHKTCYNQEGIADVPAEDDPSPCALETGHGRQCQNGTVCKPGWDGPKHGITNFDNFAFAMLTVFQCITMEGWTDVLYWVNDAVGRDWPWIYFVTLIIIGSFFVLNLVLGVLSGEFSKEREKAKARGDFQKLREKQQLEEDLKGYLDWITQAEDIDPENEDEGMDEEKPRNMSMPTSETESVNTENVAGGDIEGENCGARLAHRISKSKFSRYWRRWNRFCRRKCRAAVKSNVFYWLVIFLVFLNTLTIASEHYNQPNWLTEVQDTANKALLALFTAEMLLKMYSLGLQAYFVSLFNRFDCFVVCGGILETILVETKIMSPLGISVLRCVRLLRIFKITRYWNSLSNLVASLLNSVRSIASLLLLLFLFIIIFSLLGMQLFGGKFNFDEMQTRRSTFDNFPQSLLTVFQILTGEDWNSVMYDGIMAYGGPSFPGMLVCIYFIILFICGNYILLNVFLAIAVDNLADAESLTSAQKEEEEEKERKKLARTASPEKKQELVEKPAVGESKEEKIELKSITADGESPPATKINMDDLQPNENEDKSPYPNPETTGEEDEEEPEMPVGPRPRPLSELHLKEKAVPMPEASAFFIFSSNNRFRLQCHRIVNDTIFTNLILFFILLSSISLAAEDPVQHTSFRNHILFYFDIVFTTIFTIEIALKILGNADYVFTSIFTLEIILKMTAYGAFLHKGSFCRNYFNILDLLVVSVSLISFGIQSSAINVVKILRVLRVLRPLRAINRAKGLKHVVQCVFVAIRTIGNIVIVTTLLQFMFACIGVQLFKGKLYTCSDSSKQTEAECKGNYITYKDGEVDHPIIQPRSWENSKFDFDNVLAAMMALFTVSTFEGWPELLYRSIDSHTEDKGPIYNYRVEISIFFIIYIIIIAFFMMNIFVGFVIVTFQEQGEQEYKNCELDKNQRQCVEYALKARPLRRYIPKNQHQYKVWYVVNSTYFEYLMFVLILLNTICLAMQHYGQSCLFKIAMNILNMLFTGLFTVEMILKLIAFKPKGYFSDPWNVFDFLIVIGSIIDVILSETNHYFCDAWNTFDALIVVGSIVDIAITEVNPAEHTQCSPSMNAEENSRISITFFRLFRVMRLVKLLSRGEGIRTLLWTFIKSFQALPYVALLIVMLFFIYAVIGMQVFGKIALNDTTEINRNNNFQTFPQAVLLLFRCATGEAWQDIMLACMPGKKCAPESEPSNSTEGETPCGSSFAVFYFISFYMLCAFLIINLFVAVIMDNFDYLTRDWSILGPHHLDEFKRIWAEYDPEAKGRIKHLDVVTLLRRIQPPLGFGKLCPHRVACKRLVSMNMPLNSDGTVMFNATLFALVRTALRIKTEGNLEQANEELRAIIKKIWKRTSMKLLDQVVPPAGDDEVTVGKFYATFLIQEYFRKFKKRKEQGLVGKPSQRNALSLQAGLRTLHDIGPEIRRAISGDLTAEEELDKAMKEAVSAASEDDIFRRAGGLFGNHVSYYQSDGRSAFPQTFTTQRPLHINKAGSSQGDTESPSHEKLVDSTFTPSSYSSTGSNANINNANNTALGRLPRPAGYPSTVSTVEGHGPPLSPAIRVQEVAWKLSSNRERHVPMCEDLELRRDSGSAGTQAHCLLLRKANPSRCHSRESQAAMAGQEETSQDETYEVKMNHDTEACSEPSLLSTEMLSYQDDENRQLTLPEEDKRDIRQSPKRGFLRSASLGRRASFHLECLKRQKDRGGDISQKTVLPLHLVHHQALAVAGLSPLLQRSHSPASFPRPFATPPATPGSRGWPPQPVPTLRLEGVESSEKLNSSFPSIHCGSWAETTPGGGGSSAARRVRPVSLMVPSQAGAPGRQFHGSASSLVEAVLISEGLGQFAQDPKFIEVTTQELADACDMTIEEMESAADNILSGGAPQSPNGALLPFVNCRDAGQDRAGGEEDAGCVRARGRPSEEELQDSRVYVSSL
T1 sequence (Q08289 whole entry partner): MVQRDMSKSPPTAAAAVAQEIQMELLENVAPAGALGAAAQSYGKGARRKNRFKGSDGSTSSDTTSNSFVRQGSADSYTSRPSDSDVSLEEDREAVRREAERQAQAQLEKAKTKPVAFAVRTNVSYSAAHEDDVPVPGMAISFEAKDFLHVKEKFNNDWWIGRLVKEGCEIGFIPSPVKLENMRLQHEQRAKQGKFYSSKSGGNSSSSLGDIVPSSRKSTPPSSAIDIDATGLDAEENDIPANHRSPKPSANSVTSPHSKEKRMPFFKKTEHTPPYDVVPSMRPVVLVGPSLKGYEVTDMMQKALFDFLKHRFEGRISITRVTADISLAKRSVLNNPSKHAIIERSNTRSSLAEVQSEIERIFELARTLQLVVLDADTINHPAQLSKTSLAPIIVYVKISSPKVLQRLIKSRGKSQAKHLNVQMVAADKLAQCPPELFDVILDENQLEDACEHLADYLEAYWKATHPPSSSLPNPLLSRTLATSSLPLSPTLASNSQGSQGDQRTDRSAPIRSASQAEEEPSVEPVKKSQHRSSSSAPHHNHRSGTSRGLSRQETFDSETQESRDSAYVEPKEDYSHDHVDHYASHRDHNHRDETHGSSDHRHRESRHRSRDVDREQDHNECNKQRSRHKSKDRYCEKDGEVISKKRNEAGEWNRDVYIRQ
T1 sequence (P54289 25-946 partner limits assumed): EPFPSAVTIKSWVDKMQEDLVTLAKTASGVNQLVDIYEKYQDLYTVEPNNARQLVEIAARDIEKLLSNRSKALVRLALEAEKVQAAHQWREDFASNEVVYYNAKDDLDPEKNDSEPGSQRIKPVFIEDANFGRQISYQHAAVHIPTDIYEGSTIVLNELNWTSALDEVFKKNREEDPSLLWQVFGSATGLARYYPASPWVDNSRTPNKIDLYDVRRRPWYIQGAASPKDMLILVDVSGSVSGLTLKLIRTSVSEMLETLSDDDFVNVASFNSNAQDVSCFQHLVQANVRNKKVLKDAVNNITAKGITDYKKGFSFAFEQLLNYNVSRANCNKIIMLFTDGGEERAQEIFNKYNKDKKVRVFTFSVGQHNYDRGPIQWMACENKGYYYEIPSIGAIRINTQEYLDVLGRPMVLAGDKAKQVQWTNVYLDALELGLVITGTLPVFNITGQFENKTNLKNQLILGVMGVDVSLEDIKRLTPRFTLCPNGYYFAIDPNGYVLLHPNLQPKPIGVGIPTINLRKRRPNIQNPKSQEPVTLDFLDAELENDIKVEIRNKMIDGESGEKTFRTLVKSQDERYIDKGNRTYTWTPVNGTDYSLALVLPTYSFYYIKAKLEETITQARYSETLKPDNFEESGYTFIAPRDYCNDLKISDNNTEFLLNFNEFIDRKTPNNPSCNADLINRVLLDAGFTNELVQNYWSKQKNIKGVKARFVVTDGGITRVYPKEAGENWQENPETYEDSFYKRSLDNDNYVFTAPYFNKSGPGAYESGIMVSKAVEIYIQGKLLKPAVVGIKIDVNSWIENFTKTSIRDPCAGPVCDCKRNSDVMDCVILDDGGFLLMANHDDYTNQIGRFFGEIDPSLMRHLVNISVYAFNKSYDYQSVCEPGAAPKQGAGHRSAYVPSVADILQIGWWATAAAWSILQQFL
T1 sequence (P54289 947-1103 partner limits assumed): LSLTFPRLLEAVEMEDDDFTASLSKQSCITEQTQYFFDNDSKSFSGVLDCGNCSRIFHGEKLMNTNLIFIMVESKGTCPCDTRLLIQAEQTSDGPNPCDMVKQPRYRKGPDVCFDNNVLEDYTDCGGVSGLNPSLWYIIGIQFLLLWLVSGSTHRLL

CC1=C(C(=O)Nc2cc(Cl)ccc2Cl)C(C2CCCC2)C2=C(CCCC2=O)N1 (stereo not shown) [Compound 63, 4-Cyclopentyl-N-(2,5-dichlorophenyl)-2-methyl-5-oxo-1,4,5,6,7,8-hexahydroquinoline-3-carboxamide]
Cav1.2 (L-type) binding (antagonist radioligand) [1]: 1% | activity at L-type calcium ion channels [1]: No significant activity | cAMP pEC50 (rFFA3) (rFFA3): 6.39 ± 0.03 | cAMP pEC50 (mFFA3) (mFFA3): 5.96 ± 0.04 | logD (log D7.4 measurement): > 4.3 | activity at FFA4 (human FFA4): No significant activity | MLM (%) remaining [2]: 41%

CCCC1C(C(=O)Nc2cc(Cl)ccc2Cl)=C(C)NC2=C1C(=O)CCC2 (stereo not shown) [Compound 57, N-(2,5-Dichlorophenyl)-2-methyl-5-oxo-4-propyl-1,4,5,6,7,8-hexahydroquinoline-3-carboxamide]
Cav1.2 (L-type) binding (antagonist radioligand) [1]: 12% | activity at L-type calcium ion channels [1]: No significant activity | logD at 24 h (log D7.4 measurement): 4.25 | activity at FFA4 (human FFA4): No significant activity | MLM (%) remaining [2]: 1−2% and 1%

CC1=C(C(=O)Nc2ccccc2C)C(c2ccco2)C2=C(CCCC2=O)N1 (stereo not shown) [Compound 1, 4-(Furan-2-yl)-2-methyl-5-oxo-N-(o-tolyl)-1,4,5,6,7,8-hexahydroquinoline-3-carboxamide, reference compound]
Cav1.2 (L-type) binding (antagonist radioligand) [1]: -20% | activity at L-type calcium ion channels [1]: No significant activity | cAMP pEC50 (rFFA3) (rFFA3): 5.87 ± 0.07 | loss of potency from human to rodent species (mFFA3): 3–10 fold | cAMP pEC50 (mFFA3) (mFFA3): 5.42 ± 0.04 | logD (log D7.4 measurement): 2.05 | activity at FFA4 (human FFA4): No significant activity | MLM (%) remaining [2]: 52%

CC1=C(C(=O)Nc2cc(Cl)ccc2Cl)C(c2ccco2)C2=C(CCCC2=O)N1 (stereo not shown) [Compound 16, reference compound]
Cav1.2 (L-type) binding (antagonist radioligand) [1]: 13% | activity at L-type calcium ion channels [1]: No significant activity | cAMP pEC50 (rFFA3) (rFFA3): 6.34 ± 0.04 | loss of potency from human to rodent species (mFFA3): 3–10 fold | cAMP pEC50 (mFFA3) (mFFA3): 5.88 ± 0.05 | logD (log D7.4 measurement): 3.19 | activity at FFA4 (human FFA4): No significant activity | MLM (%) remaining [2]: 1−2% and 1%
